What all share (type): cell-based
The target of one test is human GcgR (Homo sapiens, UniProt P47871). Nature of the test: Functional cAMP activity in the presence of 1% HSA. Conditions: read-out: cAMP Rel EC50, hGcgR.
The next test addresses hGcgR (Homo sapiens, UniProt P47871). Description: Functional cAMP activation in the presence of 0.1% casein (no HSA). The settings on record: in the presence of 0.1% casein (no HSA); geometric mean; read-out: Relative cAMP EC50, hGcgR.
The target in test [1] is T1, hGIPR (Homo sapiens, UniProt P48546).
T1 sequence (P48546 22-466): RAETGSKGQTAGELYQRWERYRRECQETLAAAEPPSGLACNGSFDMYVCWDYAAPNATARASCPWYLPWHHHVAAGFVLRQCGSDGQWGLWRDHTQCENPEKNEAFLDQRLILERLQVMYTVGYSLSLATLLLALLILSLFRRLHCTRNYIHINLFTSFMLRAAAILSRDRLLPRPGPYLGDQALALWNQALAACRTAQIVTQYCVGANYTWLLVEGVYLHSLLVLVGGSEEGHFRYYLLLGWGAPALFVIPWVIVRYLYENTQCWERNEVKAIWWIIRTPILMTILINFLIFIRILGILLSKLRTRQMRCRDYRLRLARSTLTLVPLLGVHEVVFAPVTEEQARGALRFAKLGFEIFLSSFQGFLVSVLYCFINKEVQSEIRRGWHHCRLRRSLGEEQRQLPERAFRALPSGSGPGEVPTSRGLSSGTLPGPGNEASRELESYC
Nature of the test: Functional cAMP activity in the presence of 1% HSA. Conditions: read-out: cAMP Rel EC50, hGIPR.

The target of test [2] is T2, hGLP-1R (Homo sapiens, UniProt P43220). Nature of the test: Functional cAMP activation in the presence of 0.1% casein (no HSA). Conditions: in the presence of 0.1% casein (no HSA); geometric mean; read-out: Relative cAMP EC50, hGLP-1R.
T2 sequence (P43220 24-463): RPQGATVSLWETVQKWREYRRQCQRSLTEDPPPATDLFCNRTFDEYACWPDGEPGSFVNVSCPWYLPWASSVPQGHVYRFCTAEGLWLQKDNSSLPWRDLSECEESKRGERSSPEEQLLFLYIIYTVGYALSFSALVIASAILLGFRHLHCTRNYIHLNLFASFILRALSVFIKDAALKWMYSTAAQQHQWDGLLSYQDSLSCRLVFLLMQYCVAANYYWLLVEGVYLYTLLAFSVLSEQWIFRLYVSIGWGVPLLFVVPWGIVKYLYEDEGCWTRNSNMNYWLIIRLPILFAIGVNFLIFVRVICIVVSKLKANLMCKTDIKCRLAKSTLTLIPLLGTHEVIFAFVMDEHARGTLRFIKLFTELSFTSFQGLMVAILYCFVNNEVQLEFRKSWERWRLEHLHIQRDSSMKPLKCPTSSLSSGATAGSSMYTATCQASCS
Test [3] addresses T1, hGIPR. Described as above. Conditions: in the presence of 0.1% casein (no HSA); geometric mean; read-out: Relative cAMP EC50, hGIPR.
For test [4], the target named is T2, hGLP-1R. Nature of the test: Functional cAMP activity in the presence of 1% HSA. The settings on record: read-out: cAMP Rel EC50, hGLP-1R.
[5] abbreviates: HEK-293 clonal cell line, in the presence of 1% HSA, geometric mean of relative EC50.

Like-named read-outs stand apart in the source and are kept apart here. Starred links: 1 amine or outer side, 2 acyl side, 3 side chain; linkers in the order of their positions; H or OH if unused. Non-standard residues stand in square brackets, D forms with d. Groups on a side chain read outwards from the residue. *: point of attachment. C18 diacid = O=C(O)CCCCCCCCCCCCCCCCC(=O)*; γGlu = O=C(O)[C@H](CCC(=O)[*:2])N[*:1]; αMe4Pal = C[C@](N)(Cc1ccncc1)C(=O)O; αMeY = C[C@](N)(Cc1ccc(O)cc1)C(=O)O; 4Pal = N[C@@H](Cc1ccncc1)C(=O)O; αMeL = CC(C)C[C@](C)(N)C(=O)O; Orn = NCCC[C@H](N)C(=O)O; AEEA = NCCOCCOCC(=O)O; Aib = CC(C)(N)C(=O)O

Broadly, the EC50 is the midpoint of the concentration-response curve.
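For Relative cAMP EC50, hGIPR in this document: intracellular cAMP rise after 30 min at 37 °C read by HTRF against a standard curve, scaled between buffer alone (0%) and top control ligand concentration (100%), four-parameter fit.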
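For Relative cAMP EC50, hGLP-1R in this document: intracellular cAMP rise after 30 min at 37 °C read by HTRF, normalized between buffer only (0%) and maximal control ligand (100%), four-parameter variable-slope fit.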
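For Relative cAMP EC50, hGcgR in this document: intracellular cAMP rise after 30 min at 37 °C, read by HTRF against a cAMP standard curve, scaled from buffer only (0%) to maximal control ligand response (100%).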

hGcgR, sequence (P47871 26-477): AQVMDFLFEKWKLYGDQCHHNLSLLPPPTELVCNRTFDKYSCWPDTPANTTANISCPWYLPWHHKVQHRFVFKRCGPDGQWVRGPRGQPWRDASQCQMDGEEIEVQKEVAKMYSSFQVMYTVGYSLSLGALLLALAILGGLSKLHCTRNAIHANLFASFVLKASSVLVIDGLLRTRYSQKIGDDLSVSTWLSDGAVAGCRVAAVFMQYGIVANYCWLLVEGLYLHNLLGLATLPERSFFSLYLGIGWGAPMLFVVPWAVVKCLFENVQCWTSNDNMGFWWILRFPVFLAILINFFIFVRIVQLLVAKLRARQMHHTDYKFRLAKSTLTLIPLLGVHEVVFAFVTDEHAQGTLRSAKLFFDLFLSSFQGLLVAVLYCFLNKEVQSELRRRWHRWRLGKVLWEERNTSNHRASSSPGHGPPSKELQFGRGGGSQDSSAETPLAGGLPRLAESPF
human GcgR, sequence (P47871 26-477): as above

For “H-Y[Aib]QGTFTSD[4Pal]SQ[αMeL]LD[Orn]K([γGlu-γGlu-C18 diacid])AQ[αMe4Pal]AFIEYLIAGGPSSGEPPPSGTEEE-NH2 [Example 986]”, the EC50 at human GcgR (setting [5]) came to 702 nM; on hGcgR, 4.94 nM; on hGIPR [1] (setting [5]), 31.3 nM; on hGLP-1R [2], 3.06 nM; on hGIPR [3], 0.299 nM; on hGLP-1R [4] (setting [5]), 380 nM.

As to “H-Y[Aib]QGTFTSD[4Pal]SQ[αMeL]LD[Orn]K([γGlu-γGlu-C18 diacid])AQ[αMe4Pal]AFIEYLIA[Aib]GPSSGAPPPSGSEE-NH2 [Example 1091]”, the EC50 on human GcgR was found to be 550 nM; at hGcgR, 4.67 nM; on hGIPR [1], 5.79 nM; on hGLP-1R [2], 1.23 nM; at hGIPR [3] it was 0.0592 nM; at hGLP-1R [4], 145 nM.

For the substance “H-Y[Aib]QGTFTSD[4Pal]SQ[αMeL]LD[Orn]K([γGlu-γGlu-C18 diacid])AQ[αMe4Pal]AFIEYLIA[Aib]GPSSGEPPPSGSEE-NH2 [Example 1092]”, the concentration giving a half-maximal response (EC50) on human GcgR came out at 506 nM; at hGcgR, 3.45 nM; at hGIPR [1], 7.83 nM; at hGLP-1R [2], 1.33 nM; on hGIPR [3], 0.0648 nM; on hGLP-1R [4], 230 nM.

On to “H-Y[Aib]QGTFTSD[4Pal]SQ[αMeL]LD[Orn]K([γGlu-γGlu-C18 diacid])AQ[αMe4Pal]AFIEYLIE[Aib]GPSSGAPPPSGSEE-NH2 [Example 937]”, for which the half-maximal effective concentration (EC50) on human GcgR was 1160 nM; at hGcgR it was 5.52 nM; at hGIPR [1], 19.7 nM; on hGLP-1R [2] it was 2.52 nM; at hGIPR [3], 0.222 nM; at hGLP-1R [4] it was 261 nM.

With “H-Y[Aib]QGTFTSD[4Pal]SQ[αMeL]LD[Orn]K([γGlu-γGlu-C18 diacid])AQ[αMe4Pal]AFIEYLIE[dA]GPSSGAPPPSGS-NH2 [Example 1017]”, the EC50 at human GcgR stood at 649 nM; on hGcgR, 6.47 nM; on hGIPR [1], 28.3 nM; on hGLP-1R [2], 1.16 nM; on hGIPR [3], 0.228 nM; on hGLP-1R [4], 118 nM.

Turning to “H-Y[Aib]QGTFTSD[4Pal]SQ[αMeL]LD[Orn]K([γGlu-γGlu-C18 diacid])AQ[αMe4Pal]AFIEYLIE[dA]GPSSGEPPPSGS-NH2 [Example 1019]”, the EC50 came out at 579 nM on human GcgR; 4.36 nM at hGcgR; 21.3 nM on hGIPR [1]; 1.33 nM at hGLP-1R [2]; 0.169 nM on hGIPR [3]; 161 nM on hGLP-1R [4].

For the substance “H-Y[Aib]QGTFTSD[4Pal]SQ[αMeL]LD[Orn]K([γGlu-γGlu-C18 diacid])AQ[αMe4Pal]AFIE[αMeY]LIA[Aib]GPSSGAPPPSGSEE-NH2 [Example 1107]”, the EC50 amounted to 864 nM on human GcgR; 5.66 nM at hGcgR; 5.29 nM at hGIPR [1]; 0.51 nM on hGLP-1R [2]; 0.0447 nM at hGIPR [3]; 59 nM at hGLP-1R [4].

With “H-Y[Aib]QGTFTSD[4Pal]SQ[αMeL]LD[Orn]K([γGlu-γGlu-C18 diacid])AQ[αMe4Pal]AFIE[αMeY]LIA[Aib]GPSSGEPPPSGSEE-NH2 [Example 1094]”, the EC50 on human GcgR stood at 831 nM; at hGcgR, 5.84 nM; at hGIPR [1], 5.86 nM; on hGLP-1R [2], 0.623 nM; on hGIPR [3] it was 0.0515 nM; on hGLP-1R [4] it was 64.4 nM.

In the case of “H-Y[Aib]QGTFTSD[4Pal]SQ[αMeL]LD[Orn]K([γGlu-γGlu-C18 diacid])AQ[αMe4Pal]AFIE[αMeY]LIEGGPSSGAPPPSGSEE-NH2 [Example 1043]”, the half-maximal effective concentration (EC50) was determined as 2240 nM on human GcgR; 17.1 nM at hGcgR; 44.9 nM at hGIPR [1]; 1.52 nM at hGLP-1R [2]; 0.282 nM at hGIPR [3]; 268 nM at hGLP-1R [4].

Turning to “H-Y[Aib]QGTFTSD[4Pal]SQ[αMeL]LD[Orn]K([γGlu-γGlu-C18 diacid])AQ[αMe4Pal]AFIE[αMeY]LIE[Aib]GPSSGEPPPSGSEE-NH2 [Example 1093]”, the EC50 at human GcgR is 958 nM; on hGcgR it was 7.72 nM; at hGIPR [1], 26.8 nM; at hGLP-1R [2] it was 0.954 nM; at hGIPR [3], 0.152 nM; at hGLP-1R [4], 141 nM.

With “H-Y[Aib]QGTFTSD[4Pal]SQ[αMeL]LD[Orn]K([γGlu-γGlu-C18 diacid])AQ[αMe4Pal]AFI[dE][αMeY]LIEGGPSSGAPPPSGSEE-NH2 [Example 1044]”, the EC50 is 2410 nM at human GcgR; 18.8 nM on hGcgR; 88.7 nM on hGIPR [1]; 10.7 nM on hGLP-1R [2]; 0.896 nM at hGIPR [3]; 1110 nM on hGLP-1R [4].

Take “H-Y[Aib]QGTFTSD[4Pal]SQ[αMeL]LD[Orn]K([γGlu-γGlu-C18 diacid])AQ[αMe4Pal]QFIEYLIAGGPSSGAPPPSGSEE-NH2 [Example 1005]”: the EC50 at human GcgR was 1670 nM; at hGcgR it was 9.46 nM; at hGIPR [1] it was 14.5 nM; at hGLP-1R [2], 1.48 nM; at hGIPR [3], 0.152 nM; at hGLP-1R [4] it was 171 nM.

On to “H-Y[Aib]QGTFTSD[4Pal]SQ[αMeL]LD[Orn]K([γGlu-γGlu-C18 diacid])AQ[αMe4Pal]QFIEYLLAGGPSSGAPPPSGSEE-NH2 [Example 1006]”, for which the EC50 on human GcgR worked out at 315 nM; on hGcgR, 4.28 nM; at hGIPR [1], 11.8 nM; on hGLP-1R [2] it was 5.12 nM; on hGIPR [3], 0.109 nM; on hGLP-1R [4], 574 nM.

“H-Y[Aib]QGTFTSD[4Pal]SQ[αMeL]LD[Orn]K([γGlu-γGlu-C18 diacid])AQ[αMe4Pal]QFIE[αMeY]LIEGGPSSGAPPPSGSEE-NH2 [Example 1046]”: the EC50 on human GcgR was found to be 1680 nM; on hGcgR it was 10 nM; at hGIPR [1], 85 nM; at hGLP-1R [2], 1.94 nM; on hGIPR [3] it was 0.352 nM; at hGLP-1R [4] it was 528 nM.

As for “H-Y[Aib]QGTFTSD[4Pal]SR[αMeL]LDKK([AEEA-AEEA-γGlu-C18 diacid])AQ[αMe4Pal]AFIEYLIE[Aib]GPSSGAPPPSGS-NH2 [Example 815]”, the EC50 turned out to be 798 nM on human GcgR; 4.13 nM on hGcgR; 17.9 nM on hGIPR [1]; 2.79 nM at hGLP-1R [2]; 0.181 nM on hGIPR [3]; 342 nM at hGLP-1R [4].

As to “H-Y[Aib]QGTFTSD[4Pal]SR[αMeL]LDKK([AEEA-γGlu-C18 diacid])AQ[Aib]AFIEYLIE[Aib]GPSSGAPPPSGS-NH2 [Example 802]”, the EC50 stood at 2520 nM on human GcgR; 16.6 nM at hGcgR; 16.9 nM on hGIPR [1]; 1.41 nM at hGLP-1R [2]; 0.124 nM at hGIPR [3]; 153 nM at hGLP-1R [4].

Consider “H-Y[Aib]QGTFTSD[4Pal]SR[αMeL]LDKK([AEEA-γGlu-C18 diacid])AQ[Aib]AFIE[αMeY]LIEGGPSSGAPPPSGS-NH2 [Example 837]”, for which the EC50 came out at 2060 nM on human GcgR; 7.24 nM on hGcgR; 20.7 nM on hGIPR [1]; 0.551 nM at hGLP-1R [2]; 0.209 nM at hGIPR [3]; 69.6 nM at hGLP-1R [4].

As for “H-Y[Aib]QGTFTSD[4Pal]SR[αMeL]LDKK([AEEA-γGlu-C18 diacid])AQ[Aib]AFIE[αMeY]LLEGGPSSGAPPPSGS-NH2 [Example 909]”, the EC50 on human GcgR stood at 1740 nM; on hGcgR it was 6.82 nM; on hGIPR [1], 20.2 nM; at hGLP-1R [2], 1.72 nM; on hGIPR [3], 0.121 nM; at hGLP-1R [4], 243 nM.

Regarding “H-Y[Aib]QGTFTSD[4Pal]SR[αMeL]LDKK([AEEA-γGlu-C18 diacid])AQ[αMe4Pal]AFIEYLIE[Aib]GPSSGAPPPSGS-NH2 [Example 809]”, the EC50 at human GcgR was 377 nM; on hGcgR, 1.74 nM; at hGIPR [1], 20.4 nM; at hGLP-1R [2], 1.87 nM; on hGIPR [3], 0.194 nM; at hGLP-1R [4] it was 249 nM.

On to “H-Y[Aib]QGTFTSD[4Pal]SR[αMeL]LDKK([AEEA-γGlu-C18 diacid])AQ[αMe4Pal]AFIE[αMe4Pal]LIEGGPSSGAPPPSGSEE-NH2 [Example 956]”, for which the EC50 at human GcgR is 406 nM; at hGcgR it was 2.17 nM; on hGIPR [1], 32.1 nM; at hGLP-1R [2] it was 4.83 nM; at hGIPR [3], 0.26 nM; at hGLP-1R [4] it was 643 nM.

Take “H-Y[Aib]QGTFTSD[4Pal]SR[αMeL]LDKK([γGlu-γGlu-C18 diacid])AQ[αMe4Pal]AFIEYLIAGGESSGAPPPSGSEE-NH2 [Example 965]”: the EC50 on human GcgR amounted to 430 nM; at hGcgR it was 3.35 nM; at hGIPR [1], 23.2 nM; at hGLP-1R [2] it was 1.39 nM; at hGIPR [3], 0.13 nM; on hGLP-1R [4], 194 nM.
